# From publication PMC3224021 (ACS medicinal chemistry letters, 2011)
# Key:
# human GALK = human GALK (Homo sapiens, UniProt P51570); experiment: in vitro GALK; type: biochemical; settings: for inhibitory activity against GALK (in words): in vitro GALK inhibitory assays, tested up to 50μM
# human fibroblast cells = experiment: cell tolerance / lethality in fibroblast cells; type: cell-based
# [1] = test system: GALK in patient fibroblast cells; experiment: intracellular inhibition of GALK measured by reduction of gal-1P accumulation; type: cell-based, human; settings: 50μM
# Sequence of human GALK (P51570 whole entry): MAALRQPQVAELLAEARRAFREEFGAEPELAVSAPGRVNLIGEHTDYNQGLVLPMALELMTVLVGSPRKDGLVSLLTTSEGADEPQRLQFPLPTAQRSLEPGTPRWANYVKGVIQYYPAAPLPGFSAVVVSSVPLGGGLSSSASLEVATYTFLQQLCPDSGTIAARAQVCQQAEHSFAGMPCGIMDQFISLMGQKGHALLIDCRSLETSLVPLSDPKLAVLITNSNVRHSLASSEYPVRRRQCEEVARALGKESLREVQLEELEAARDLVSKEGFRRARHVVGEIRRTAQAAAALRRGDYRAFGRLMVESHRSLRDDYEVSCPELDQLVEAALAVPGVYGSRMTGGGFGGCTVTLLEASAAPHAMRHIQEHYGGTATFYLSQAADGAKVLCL
SMILES,inhibitory activity against GALK (in words) (human GALK),also measured
N#CC1=C(SCc2ccccc2)SC(c2ccccc2O)NC1=O (stereo not shown) [compound 1],,IC50 (human GALK): 1400 ± 700 nM
N#CC1=C(SCc2ccccc2)SC(c2ccc(O)c(O)c2)NC1=O (stereo not shown) [compound 2],,toxicity in patient cells (human fibroblast cells; concentration not given): toxicity
CSC1=C(C#N)C(=O)NC(c2ccccc2O)S1 (stereo not shown) [compound 3],possess inhibitory activities,
N#CC1=C(SCc2ccccc2)SC(c2ccc(C(=O)O)cc2)NC1=O (stereo not shown) [compound 4],possess inhibitory activities,
CC1NC(=O)C(C#N)=C(SCc2ccccc2)S1 (stereo not shown) [compound 5],did not display any inhibitory activity,
CC1(C)NC(=O)C(C#N)=C(SCc2ccccc2)S1 [compound 6],did not display any inhibitory activity,
CCCCSC1=C(C#N)C(=O)NC(c2ccccc2O)S1 (stereo not shown) [compound 7],not all the compounds with hydroxyl groups on the A ring displayed inhibitory activity,
N#CC1=C(SCc2ccccc2)SCNC1=O [compound 8],did not display any inhibitory activity,
N#CC1=C(SCc2ccc(O)cc2)SC2(CCC(C(=O)O)CC2)NC1=O (stereo not shown) [compound 9],exhibited no activity,
CSC1=C(C#N)C(=O)NC(c2ccc(Cl)cc2Cl)S1 (stereo not shown) [compound 10],inactive,
CC(=O)Oc1ccc(C2NC(=O)C(C#N)=C(SCc3ccccc3)S2)cc1OC(C)=O (stereo not shown) [compound 13],,cell toxicity (human fibroblast cells; 50μM or higher concentrations): total cell lethality within hours
N#CC1=C(SCc2cccc(N3CCOCC3)c2)SC(c2cc(O)ccc2O)NC1=O (stereo not shown) [compound 27],,inhibition of GALK / lowering of gal-1P in cells (in words) [1]: neither 27 nor 29 was able to inhibit GALK or lowered gal-1P; cell tolerance (human fibroblast cells; up to 100μM): well tolerated
N#CC1=C(SCc2cccc(N3CCOCC3)c2)SC(c2ccc(O)cc2)NC1=O (stereo not shown) [compound 29],,inhibition of GALK / lowering of gal-1P in cells (in words) [1]: neither 27 nor 29 was able to inhibit GALK or lowered gal-1P; cell tolerance / lethality (human fibroblast cells; 50μM): well-tolerated; cell lethality (human fibroblast cells; 100μM or higher): lethal to cells
